27 molecules from patent US6525050B1, “(4-oxo-2-pyrimidinyl)thioalkyl compounds useful as AICARFT inhibitors” (Agouron Pharmaceuticals, Inc., priority 1998, dated 2003) can be followed below.

AICARFT, sequence (P31939 whole entry): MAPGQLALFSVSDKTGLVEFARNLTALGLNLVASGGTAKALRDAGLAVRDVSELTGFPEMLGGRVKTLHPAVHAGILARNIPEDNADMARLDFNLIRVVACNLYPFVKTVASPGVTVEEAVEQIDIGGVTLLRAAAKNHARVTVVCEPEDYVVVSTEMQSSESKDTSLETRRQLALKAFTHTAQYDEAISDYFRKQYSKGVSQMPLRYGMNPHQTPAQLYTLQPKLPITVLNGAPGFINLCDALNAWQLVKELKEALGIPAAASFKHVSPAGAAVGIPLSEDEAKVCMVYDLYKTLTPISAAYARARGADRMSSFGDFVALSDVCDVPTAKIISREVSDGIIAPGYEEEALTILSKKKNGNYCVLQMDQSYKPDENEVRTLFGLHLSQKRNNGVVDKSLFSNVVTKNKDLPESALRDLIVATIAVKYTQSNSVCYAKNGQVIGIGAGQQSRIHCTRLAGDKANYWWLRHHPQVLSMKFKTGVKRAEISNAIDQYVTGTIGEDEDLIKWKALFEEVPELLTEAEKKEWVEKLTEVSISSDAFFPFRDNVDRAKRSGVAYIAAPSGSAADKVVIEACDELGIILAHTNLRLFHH

This assay deals with AICARFT (Homo sapiens, UniProt P31939). The assay can be described thus: AICARFT activity, spectrophotometric enzyme assay (modified Black et al.). The conditions noted are these: 50 mM Tris-HCl pH 7.5, 25° C., absorbance at 298 nm, substrates AICAR and FTHF, steady-state rate. The format is biochemical. The procedure:
Enzymatic activity was measured spectrophotometrically using a modified assay developed by Black et al. (“A Rapid Assay for 5-Amino-4-imidazolecarboxamide Ribotide Transformylase,” Anal. Biochiem. 90 (1978), 397-401). The reaction volume was 1 mL and contained 50 mM Tris-HCl pH 7.5, 25 mM KCl, 20 mM 2-mercaptoethanol, variable concentrations of test compound in 1% DMSO, […] (5-aminoimidazole-4-carboxamideribonucleotide), […] tetrathydrofolate (FTHF), and 0.015 mM enzyme. The reaction was enzyme-initiated and followed by monitoring the increase in absorbance at 298 nm at 25° C. (ξ298=19.7×10^3 cm^−1M^−1). AICARFT inhibition constants (Ki) were determined from the dependence of the steady-state catalytic rate upon compound and substrate concentration.
`N#Cc1c(-c2ccc(-c3cccs3)s2)nc(SCCCCCc2ccc(C(=O)NC(CCC(=O)O)C(=O)O)s2)[nH]c1=O` (stereo not drawn) [Compound 10, N-(5-[5-([5-Cyano-6-(5-[2-thienyl]thien-2-yl)-4(3H)-oxopyrimidin-2-yl]thio)pentyl]theno-2-yl)glutamic acid]: the Ki turned out to be 4 nM.

Regarding `N#Cc1c(-c2ccc(-c3cccs3)s2)nc(SCc2ccc(S(=O)(=O)Nc3ccc(F)cc3)cc2Cl)[nH]c1=O` [Compound 19, N-(4-Fluorophenyl) 4-[([5-cyano-6-(5-[2-thienyl]thien-2-yl)-4(3H)-oxopyrimidin-2-yl]thio)methyl]-3-chlorobenzenesulfonamide], the Ki was 400 nM. Against the preceding molecule, the Ki is about 100-fold higher.

For `O=C(O)c1ccc(CCCCCSc2nc(-c3cccc(-c4nn[nH]n4)c3)cc(=O)[nH]2)s1` [Compound 26, 5-[5-([6-(3-[1(H)-Tetrazol-5-yl]phenyl)-4(3H)-oxopyrimidin-2-yl]thio)pentyl]thiophene-2-carboxylic acid], affinity was put at a Ki of 370 nM.

As to `N#Cc1c(-c2ccc(-c3cccs3)s2)nc(SCc2ccc(S(=O)(=O)Nc3ccc(F)cc3)cc2)[nH]c1=O` [Compound 14, N-(4-Fluorophenyl) 4-[([5-cyano-6-(5-[2-thienyl]thien-2-yl)-4(3H)-oxopyrimidin-2-yl]thio)methyl]benzenesulfonamide], the affinity corresponds to a Ki of 590 nM.

`O=C(O)CCC(NC(=O)c1ccc(CCSc2nc(-c3ccccc3)cc(=O)[nH]2)s1)C(=O)O` (stereo not drawn) [Compound 12, N-(5-[2-([6-Phenyl-4(3H)-oxopyrimidin-2-yl]thio)ethyl]theno-2-yl)glutamic acid] showed a Ki of 8900 nM.

Turning to `CN(c1ccc(CSc2nc(-c3ccc(-c4cccs4)s3)c(C#N)c(=O)[nH]2)cc1)S(=O)(=O)c1ccc(F)cc1` [Compound 20, N-(4-[([5Cyano-6(5-[2-thienyl]thien-2-yl)-4(3 H)-oxopyrimidin-2-yl]thio)methyl]phenyl)-N-methyl 4-fluorobenzenesulfonamide], the Ki worked out at 1800 nM.

Molecule `O=C(O)CCC(NC(=O)c1ccc(CCCSc2nc(-c3ccccc3)cc(=O)[nH]2)s1)C(=O)O` (stereo not drawn) [Compound 13, N-(5-[3-([6Phenyl-4(3H)-oxopyrimidin-2-yl]thio)propyl]theno-2-yl)glutamic acid] registered a Ki of 5300 nM. Against the preceding molecule, the Ki is about 2.9-fold higher.

For the molecule `N#Cc1c(-c2ccc(-c3cccs3)s2)nc(SCc2cccc(NS(=O)(=O)c3ccc(F)cc3)c2)[nH]c1=O` [Compound 25, N(3-[([5-Cyano-6-(5-[2-thienyl]thien-2-yl)-4(3H)-oxopyrimidin-2-yl]thio)methyl]phenyl) 4-fluorobenzenesulfonamide], the inhibition constant (Ki) amounted to 1400 nM.

The molecule `N#Cc1c(-c2ccc(-c3cccs3)s2)nc(SCc2ccc(NS(=O)(=O)c3ccc(F)cc3)cc2)[nH]c1=O` [Compound 18, N-(4-[([5-Cyano-6-(5-[2-thienyl]thien-2-yl)-4(3H)-oxopyrimidin-2-yl]thio)methyl]phenyl) 4-fluorobenzenesulfonamide] came in with an inhibitory constant (Ki) of 380 nM.

Molecule `COc1cc(NS(=O)(=O)c2ccc(F)cc2)ccc1CSc1nc(-c2ccc(-c3cccs3)s2)c(C#N)c(=O)[nH]1` [Compound 23, N-(4-[([5-Cyano-6-(5-[2-thienyl]thien-2-yl)-4(3H)-oxopyrimidin-2-yl]thio)methyl]-3-methoxyphenyl) 4-fluorobenzenesulfonamide] displayed a Ki of 770 nM.

`Cc1ccc2cc(NS(=O)(=O)c3ccc(CSc4nc(-c5ccc(-c6cccs6)s5)c(C#N)c(=O)[nH]4)cc3)ccc2n1` [Compound 16, N-(2-Methylquinolin-6-yl) 4-[([5-cyan-6-(5-[2-thienyl]thien-2yl)-4(3H)-oxopyrimidin-2-yl]thio)methyl]benzenesulfonamide] gave an inhibition constant (Ki) of 430 nM. This Ki is about 1.8-fold lower than that of the molecule before.

Turning to `CN(c1ccc(F)cc1)S(=O)(=O)c1ccc(CSc2nc(-c3ccc(-c4cccs4)s3)c(C#N)c(=O)[nH]2)cc1` [Compound 15, N-(4-Fluorophenyl)-N-methyl 4-[([5cyano-6-(5-[2-thienyl]thien-2-yl)-4(3H)-oxopyrimidin-2-yl]thio)methyl]benzenesulfonamide], the Ki worked out at 2100 nM.

`O=C(O)c1ccc(CCCCCSc2nc(-c3ccc(-c4cccs4)s3)cc(=O)[nH]2)s1` [Compound 3, 5-[5-([6-(5-[2-Thienyl]thien-2-yl)-4(3H)-oxopyrimidin-2-yl]thio)pentyl]thiophene-2-carboxylic acid]: the affinity, expressed as Ki, was 280 nM.

The molecule `O=C(O)c1ccc(CCCCCSc2nc(-c3ccccc3)cc(=O)[nH]2)s1` [Compound 1, 5-(5-[(6-Phenyl-4(3H)-oxopyrimidin-2-yl)thio]pentyl)thiophene2-carboxylic acid] returned a Ki of 3500 nM.

On to `N#Cc1c(-c2ccc(-c3cccs3)s2)nc(SCc2ccc(S(=O)(=O)NCCc3c[nH]c4ccccc34)cc2)[nH]c1=O` [Compound 27, N-(2-[1(H)-indol-3-yl]-ethyl) 4-[([5-cyano-6-(5-[2-thienyl]thien-2-yl)-4(3H)-oxopyrimidin-2-yl]thio)methyl]benzenesulfonamide], for which the inhibition constant (Ki) was found to be 83 nM.

`COc1cc(CSc2nc(-c3ccc(-c4cccs4)s3)c(C#N)c(=O)[nH]2)ccc1NS(=O)(=O)c1ccc(F)cc1` [Compound 24] yielded a Ki of 1300 nM.

Molecule `Cc1cc(CSc2nc(-c3ccc(-c4cccs4)s3)c(C#N)c(=O)[nH]2)ccc1S(=O)(=O)Nc1ccc(F)cc1` [Compound 17, N-(4-Fluorophenyl) 4-[([5-cyano-6-(5-[2-thienyl]thien-2-yl)-4(3H)-oxopyrimidin-2-yl]thio)methyl]-2-methylbenzenesulfonamide] came in with a Ki of 1000 nM.

As to `O=C(O)c1ccc(CCCCCSc2nc(-c3ccc(N4CCOCC4)cc3)cc(=O)[nH]2)s1` [Compound 7, 5-[5-([6-(4-Morpholinylphenyl)-4(3H)-oxopyrimidin-2-yl]thio)pentyl]-thiophene-2-carboxylic acid], the affinity, expressed as Ki, was 220 nM. This Ki is about 4.5-fold lower than that of the molecule before.

For `O=C(O)CCC(NC(=O)c1ccc(CCCCSc2nc(-c3ccccc3)cc(=O)[nH]2)s1)C(=O)O` (stereo not drawn) [Compound 11, N-(5-[5-([6-Phenyl-4(3H)-oxopyrimidin-2-yl]thio)butyl]thio2-yl)glutamic acid], the affinity, expressed as Ki, was 6800 nM.

On to `Cc1cc(CSc2nc(-c3ccc(-c4cccs4)s3)c(C#N)c(=O)[nH]2)ccc1NS(=O)(=O)c1ccc(F)cc1` [Compound 22, N-(4-[([5-Cyano-6-(5-[2-thienyl]thien-2-yl)4(3H)-oxopyrimidin-2-yl]thio)methyl]-2-methylphenyl) 4-fluorobenzenesulfonamide], for which the Ki came to 1000 nM. This Ki is about 6.8-fold lower than that of the molecule before.

With `O=C(O)CCC(NC(=O)c1ccc(CCCCCSc2nc(-c3ccccc3)cc(=O)[nH]2)s1)C(=O)O` (stereo not drawn) [Compound 9, N-(5-[5-([6-Phenyl-4(3H)-oxopyrimidin-2-yl]thio)pentyl]theno-2-yl)glutamic acid], the Ki was determined as 460 nM. This Ki is about 2.2-fold lower than that of the molecule before.

`COC(=O)c1ccc(CCCCCSc2nc(-c3ccc(-c4ccccc4)cc3)cc(=O)[nH]2)s1` [Compound 4, Methyl 5-[5-([6-(4-biphenylyl)-4(3H)-oxopyrimidin-2-yl]thio)pentyl]-thiophene-2-carboxylate] came in with a Ki of 54700 nM.

The molecule `O=C(O)c1ccc(CCCSc2nc(-c3ccccc3)cc(=O)[nH]2)s1` [Compound 2, 5-(3-[(6-Phenyl-4(3H)-oxopyrimidin-2-yl)thio]propyl)thiophene-2-carboxylic acid] had a Ki of 7200 nM.

Turning to `O=C(O)c1ccc(CCCCCSc2nc(-c3ccc(Oc4ccccc4)cc3)cc(=O)[nH]2)s1` [Compound 6, 5-[5-([6-(4-Phenoxypheuyl)-4(3H)-oxopyrimidin-2-yl]thio)pentyl]thiophene-2-carboxylic acid], the affinity, expressed as Ki, was 430 nM. This Ki lies about 17-fold lower than the previous one.

Consider `N#Cc1c(-c2ccc(-c3cccs3)s2)nc(SCc2ccc(NS(=O)(=O)c3ccc(F)cc3)cc2Cl)[nH]c1=O` [Compound 21, N-(3-Chloro-4-[([5-cyano-6-(5-[2-thienyl]thien-2-yl)-4(3H)-oxopyrimidin-2-yl]thio)methyl]phenyl) 4-fluorobenzenesulfonamide], for which the Ki is 29 nM.

Take `N#Cc1c(-c2ccc(-c3cccs3)s2)nc(SCCCCCc2ccc(C(=O)O)s2)[nH]c1=O` [Compound 8, [5-([5-Cyano-6-(5-[2-thienyl]thien-2-yl)-4(3H)-oxopyrimidin-2-yl]thio)pentyl]thiopbene-2-carboxylic acid]: the affinity, expressed as Ki, was 40 nM.

Take `O=C(O)c1ccc(CCCCCSc2nc(-c3ccc(-c4ccccc4)cc3)cc(=O)[nH]2)s1` [Compound 5, 5-[5-([6-(4-Biphenylyl)-4(3H)-oxopyrimidin-2-yl]thio)pentyl]thiophene-2-carboxylic acid]: the Ki came out at 270 nM.
